Data from patent US9409966B2, “Glucagon-like peptide-1 derivatives and their pharmaceutical use” (priority 2007, dated 2016).
Where two headings read alike, the source gives them in different places. *1 amine or outer side, *2 acyl side, *3 side chain or, on linkers, in order; H or OH if unused. Where a SMILES comes first, the peptide text is derived from it. Side-chain parts run from the residue outwards. [ ]: non-standard residue; d: D form. The star is where a group is joined. C18 diacid = O=C(O)CCCCCCCCCCCCCCCCC(=O)*; γGlu = O=C(O)[C@H](CCC(=O)[*:2])N[*:1]; AEEA = NCCOCCOCC(=O)O; Aib = CC(C)(N)C(=O)O

Key:
human GLP-1 receptor = molecular target: T1, human GLP-1 receptor (Homo sapiens, UniProt P43220); experiment: Stimulation of cAMP formation in a cell line expressing the cloned human GLP-1 receptor; assay type: biochemical
T1 construct: expressed in transfected cells; host or cells: BHK467-12A (tk-ts13) baby hamster kidney cells; purified plasma membranes

[1] = molecular target: human serum albumin (HSA) (Homo sapiens, UniProt P02768); experiment: Albumin binding affinity, competition scintillation proximity assay (SPA)
Experimental: Streptavidin-SPA beads (GE Healthcare RPNQ0009) were incubated with biotinylated HSA for 5 hours. The beads were washed with buffer to remove unbound HSA. […] After 20 hours of gentle rocking at room temperature the plates were centrifuged and counted on a TopCounter.

[2] = cAMP production, purified plasma membranes from BHK467-12A (tk-ts13), AlphaScreen cAMP Assay Kit, read-out: Potency [EC50/nM]

T1 sequence (P43220 24-463): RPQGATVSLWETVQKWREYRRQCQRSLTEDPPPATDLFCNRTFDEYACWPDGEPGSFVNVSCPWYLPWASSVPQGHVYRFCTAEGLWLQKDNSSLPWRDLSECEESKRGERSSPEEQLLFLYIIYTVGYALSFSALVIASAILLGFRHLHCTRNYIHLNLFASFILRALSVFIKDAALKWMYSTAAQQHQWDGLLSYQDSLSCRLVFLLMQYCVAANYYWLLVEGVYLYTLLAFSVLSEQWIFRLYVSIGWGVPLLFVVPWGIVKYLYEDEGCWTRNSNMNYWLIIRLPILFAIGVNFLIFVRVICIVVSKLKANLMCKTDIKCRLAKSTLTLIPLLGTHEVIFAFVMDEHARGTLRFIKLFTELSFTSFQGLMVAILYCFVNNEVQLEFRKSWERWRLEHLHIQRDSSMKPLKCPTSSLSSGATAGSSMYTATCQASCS
Chain of human serum albumin (HSA) (P02768 25-609): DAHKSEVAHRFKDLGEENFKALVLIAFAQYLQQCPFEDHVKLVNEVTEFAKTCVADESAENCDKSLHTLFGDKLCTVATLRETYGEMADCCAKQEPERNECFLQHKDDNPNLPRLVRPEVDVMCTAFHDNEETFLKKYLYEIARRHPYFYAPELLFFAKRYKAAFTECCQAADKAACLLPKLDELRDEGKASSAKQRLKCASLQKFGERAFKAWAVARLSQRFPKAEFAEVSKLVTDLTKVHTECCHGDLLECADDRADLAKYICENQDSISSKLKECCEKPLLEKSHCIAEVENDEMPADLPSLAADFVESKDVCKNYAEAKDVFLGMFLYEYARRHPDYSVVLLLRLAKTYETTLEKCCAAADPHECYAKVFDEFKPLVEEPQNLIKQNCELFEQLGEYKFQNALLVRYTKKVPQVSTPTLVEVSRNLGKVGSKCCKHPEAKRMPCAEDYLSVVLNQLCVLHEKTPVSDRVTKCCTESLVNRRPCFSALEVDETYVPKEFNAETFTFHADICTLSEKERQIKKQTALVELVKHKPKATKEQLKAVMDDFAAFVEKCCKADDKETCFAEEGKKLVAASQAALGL

SMILES	EC50 (human GLP-1 receptor; [2]) [nM]	EC50 [1] [nM]	EC50 (human GLP-1 receptor) [nM]
CC[C@H](C)[C@H](NC(=O)[C@H](Cc1ccccc1)NC(=O)[C@H](CCC(=O)O)NC(=O)[C@H](CCCNC(=N)N)NC(=O)[C@H](C)NC(=O)[C@H](C)NC(=O)[C@H](CCC(N)=O)NC(=O)[C@H](CCC(=O)O)NC(=O)[C@H](CCC(=O)O)NC(=O)[C@H](CC(C)C)NC(=O)[C@H](Cc1ccc(O)cc1)NC(=O)[C@H](CO)NC(=O)[C@H](CO)NC(=O)[C@@H](NC(=O)[C@H](CC(=O)O)NC(=O)[C@H](CO)NC(=O)[C@@H](NC(=O)[C@H](Cc1ccccc1)NC(=O)[C@@H](NC(=O)CNC(=O)[C@H](CCC(=O)O)NC(=O)[C@H](C)NC(=O)CCc1c[nH]cn1)[C@@H](C)O)[C@@H](C)O)C(C)C)C(=O)N[C@@H](C)C(=O)N[C@@H](Cc1c[nH]c2ccccc12)C(=O)N[C@@H](CC(C)C)C(=O)N[C@H](C(=O)N[C@@H](CCCNC(=N)N)C(=O)NCC(=O)N[C@@H](CCCNC(=N)N)C(=O)N[C@@H](CCCCNC(=O)COCCOCCNC(=O)CC[C@H](NC(=O)CC[C@H](NC(=O)CC[C@H](NC(=O)CCCCCCCCCCCCCCCCCCC(=O)O)C(=O)O)C(=O)O)C(=O)O)C(=O)O)C(C)C [Example 25, N-epsilon37-(2-{2-[2-((S)-4-Carboxy-4-{(S)-4-carboxy-4-[(S)-4-carboxy-4-(19-carboxy-nonadecanoylamino)butyrylamino]butyrylamino}butyrylamino)ethoxy]ethoxy}acetyl)[DesaminoHis7,Glu22,Arg26,Arg34,Lys37]GLP-1-(7-37)]	0.36	150 to 200	
CC[C@H](C)[C@H](NC(=O)[C@H](Cc1ccccc1)NC(=O)[C@H](CCC(=O)O)NC(=O)[C@H](CCCNC(=N)N)NC(=O)[C@H](C)NC(=O)[C@H](C)NC(=O)[C@H](CCC(N)=O)NC(=O)[C@H](CCC(=O)O)NC(=O)[C@H](CCC(=O)O)NC(=O)[C@H](CC(C)C)NC(=O)[C@H](Cc1ccc(O)cc1)NC(=O)[C@H](CO)NC(=O)[C@H](CO)NC(=O)[C@@H](NC(=O)[C@H](CC(=O)O)NC(=O)[C@H](CO)NC(=O)[C@@H](NC(=O)[C@H](Cc1ccccc1)NC(=O)[C@@H](NC(=O)CNC(=O)[C@H](CCC(=O)O)NC(=O)C(C)(C)NC(=O)[C@@H](N)Cc1c[nH]cn1)[C@@H](C)O)[C@@H](C)O)C(C)C)C(=O)N[C@@H](C)C(=O)N[C@@H](Cc1c[nH]c2ccccc12)C(=O)N[C@@H](CC(C)C)C(=O)N[C@H](C(=O)N[C@@H](CCCNC(=N)N)C(=O)NCC(=O)N[C@@H](CCCNC(=N)N)C(=O)N[C@@H](CCCCNC(=O)COCCOCCNC(=O)COCCOCCNC(=O)CC[C@H](NC(=O)CCCCCCCCCCCCCCCCC(=O)O)C(=O)O)C(=O)O)C(C)C [Example 27, N-epsilon37-[2-(2-{2-[2-(2-{2-[(S)-4-Carboxy-4-(17-carboxy-heptadecanoylamino)-butyrylamino]-ethoxy}-ethoxy)-acetylamino]-ethoxy}-ethoxy)-acetyl] [Aib8,Glu22,Arg26,Arg34,Lys37]GLP-1-(7-37)]	0.05	100 to 150	
CC[C@H](C)[C@H](NC(=O)[C@H](Cc1ccccc1)NC(=O)[C@H](CCC(=O)O)NC(=O)[C@H](CCCNC(=N)N)NC(=O)[C@H](C)NC(=O)[C@H](C)NC(=O)[C@H](CCC(N)=O)NC(=O)[C@H](CCC(=O)O)NC(=O)[C@H](CCC(=O)O)NC(=O)[C@H](CC(C)C)NC(=O)[C@H](Cc1ccc(O)cc1)NC(=O)[C@H](CO)NC(=O)[C@H](CO)NC(=O)[C@@H](NC(=O)[C@H](CC(=O)O)NC(=O)[C@H](CO)NC(=O)[C@@H](NC(=O)[C@H](Cc1ccccc1)NC(=O)[C@@H](NC(=O)CNC(=O)[C@H](CCC(=O)O)NC(=O)[C@H](C)NC(=O)CCc1c[nH]cn1)[C@@H](C)O)[C@@H](C)O)C(C)C)C(=O)N[C@@H](C)C(=O)N[C@@H](Cc1c[nH]c2ccccc12)C(=O)N[C@@H](CC(C)C)C(=O)N[C@H](C(=O)N[C@@H](CCCNC(=N)N)C(=O)NCC(=O)N[C@@H](CCCNC(=N)N)C(=O)N[C@@H](CCCCNC(=O)COCCOCCNC(=O)COCCOCCNC(=O)CC[C@H](NC(=O)CCCCCCCCCCCCCCCCC(=O)O)C(=O)O)C(=O)O)C(C)C [Example 29, N-epsilon37-[2-(2-{2-[2-(2-{2-[(S)-4-Carboxy-4-(17-carboxy-heptadecanoylamino)-butyrylamino]-ethoxy}-ethoxy)-acetylamino]-ethoxy}-ethoxy)-acetyl] [desaminoHis7,Glu22,Arg26,Arg34,Lys37] GLP-1-(7-37)]	0.1	400 to 800	
CC[C@H](C)[C@H](NC(=O)[C@H](Cc1ccccc1)NC(=O)[C@H](CCC(=O)O)NC(=O)[C@H](CCCNC(=N)N)NC(=O)[C@H](C)NC(=O)[C@H](C)NC(=O)[C@H](CCC(N)=O)NC(=O)[C@H](CCC(=O)O)NC(=O)[C@H](CCC(=O)O)NC(=O)[C@H](CC(C)C)NC(=O)[C@H](Cc1ccc(O)cc1)NC(=O)[C@H](CO)NC(=O)[C@H](CO)NC(=O)[C@@H](NC(=O)[C@H](CC(=O)O)NC(=O)[C@H](CO)NC(=O)[C@@H](NC(=O)[C@H](Cc1ccccc1)NC(=O)[C@@H](NC(=O)CNC(=O)[C@H](CCC(=O)O)NC(=O)C(C)(C)NC(=O)[C@@H](N)Cc1c[nH]cn1)[C@@H](C)O)[C@@H](C)O)C(C)C)C(=O)N[C@@H](C)C(=O)N[C@@H](Cc1c[nH]c2ccccc12)C(=O)N[C@@H](CC(C)C)C(=O)N[C@H](C(=O)N[C@@H](CCCNC(=N)N)C(=O)NCC(=O)N[C@@H](CCCNC(=N)N)C(=O)N[C@@H](CCCCNC(=O)COCCOCCNC(=O)COCCOCCNC(=O)CC[C@H](NC(=O)[C@H]1CC[C@H](CNC(=O)CCCCCCCCCCCCCCCCCCC(=O)O)CC1)C(=O)O)C(=O)O)C(C)C [Example 32, N-epsilon37-[2-(2-{2-[2-(2-{2-[(S)-4-Carboxy-4-({trans-4-[(19-carboxynonadecanoylamino)methyl]cyclohexanecarbonyl}amino)butyrylamino]ethoxy}ethoxy)acetylamino]ethoxy}ethoxy)acetyl][Aib8,Glu22,Arg26,Arg34,Lys37]GLP-1-(7-37)]		1 to 100	0.46
CC[C@H](C)[C@H](NC(=O)[C@H](Cc1ccccc1)NC(=O)[C@H](CCC(=O)O)NC(=O)[C@H](CCCNC(=N)N)NC(=O)[C@@H](NC(=O)[C@H](C)NC(=O)[C@H](CCC(N)=O)NC(=O)[C@H](CCC(=O)O)NC(=O)[C@H](CCC(=O)O)NC(=O)[C@H](CCCCN)NC(=O)[C@H](Cc1ccc(O)cc1)NC(=O)[C@H](CO)NC(=O)[C@H](CO)NC(=O)[C@@H](NC(=O)[C@H](CC(=O)O)NC(=O)[C@H](CO)NC(=O)[C@@H](NC(=O)[C@H](Cc1ccccc1)NC(=O)[C@@H](NC(=O)CNC(=O)[C@H](CCC(=O)O)NC(=O)C(C)(C)NC(=O)[C@@H](N)Cc1c[nH]cn1)[C@@H](C)O)[C@@H](C)O)C(C)C)C(C)C)C(=O)N[C@@H](C)C(=O)N[C@@H](CCCCNC(=O)COCCOCCNC(=O)COCCOCCNC(=O)CC[C@H](NC(=O)CCCCCCCCCCCCCCCCC(=O)O)C(=O)O)C(=O)N[C@@H](CC(C)C)C(=O)N[C@H](C(=O)N[C@@H](CCCNC(=N)N)C(=O)N[C@@H](CCCNC(=N)N)C(=O)N[C@@H](CCCNC(=N)N)C(=O)N[C@@H](CCCNC(=N)N)C(=O)O)C(C)C [Example 34, N-epsilon31-[2-(2-{2-[2-(2-{2-[(S)-4-Carboxy-4-(17-carboxyheptadecanoylamino)butyrylamino]ethoxy}ethoxy)acetylamino]ethoxy}ethoxy)acetyl][Aib8,Glu22,Val25,Arg26,Lys31,Arg34,Arg35,Arg37]GLP-1-(7-37)] (H-H[Aib]EGTFTSDVSSYKEEQAVREFIAK([AEEA-AEEA-γGlu-C18 diacid])LVRRRR-OH)	1.27	> 2000	
